This note sets out measurements from US12264134B2 (Merck Sharp & Dohme LLC, priority 2018, dated 2025).

Sequence of IDO1 (P14902 whole entry): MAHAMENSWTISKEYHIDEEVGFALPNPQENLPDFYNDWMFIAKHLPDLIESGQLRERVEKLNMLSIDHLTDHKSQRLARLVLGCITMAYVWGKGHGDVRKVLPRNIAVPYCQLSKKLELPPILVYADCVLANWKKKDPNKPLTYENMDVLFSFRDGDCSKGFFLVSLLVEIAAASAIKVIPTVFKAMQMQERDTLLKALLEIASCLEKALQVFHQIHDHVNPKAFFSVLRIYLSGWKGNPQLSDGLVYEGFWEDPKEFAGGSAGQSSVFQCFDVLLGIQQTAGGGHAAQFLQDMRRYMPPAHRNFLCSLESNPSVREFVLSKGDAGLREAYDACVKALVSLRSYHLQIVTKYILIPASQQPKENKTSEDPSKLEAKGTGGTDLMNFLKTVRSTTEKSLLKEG

The first assay has as its target IDO1 (Homo sapiens, UniProt P14902). Kind of assay: IDO1 Cellular Assay in HeLa Cells Stimulated with IFNγ. The conditions noted are these: HeLa Cell Potency, IC50 (nM). The class given is cell-based.
Take `Cc1cccc(N2CCN(C(=O)Cn3nc(C(=O)N4CCC(=O)CC4)c4c3C[C@H]3C[C@@H]43)CC2)c1C` [Example 265, 1-[(3bR,4aR)-1-{2-[4-(2,3-dimethylphenyl)piperazin-1-yl]-2-oxoethyl}-3b,4,4a,5-tetrahydro-1H-cyclopropa[3,4]cyclopenta[1,2-c]pyrazole-3-carbonyl]piperidin-4-one]: the 50% inhibitory concentration (IC50) (usually the concentration needed to halve the response being measured) was less than 0.51 nM.

Still in this assay, the particulars now being: read-out: HeLa Cell Potency, IC50.
In the case of `Cc1cccc(N2CCN(C(=O)Cn3nc(C(=O)N4CCC(C)(O)CC4C)c4c3C[C@H]3C[C@@H]43)CC2)c1C` (stereo partly drawn) [Example 245, 1-[4-(2,3-dimethylphenyl)piperazin-1-yl]-2-[(3bR,4aR)-3-(4-hydroxy-2,4-dimethylpiperidine-1-carbonyl)-3b,4,4a,5-tetrahydro-1H-cyclopropa[3,4]cyclopenta[1,2-c]pyrazol-1-yl]ethan-1-one], the concentration for half-maximal inhibition (IC50) is 3.01 nM.
Still for that read-out and setting: in the case of `Cc1cccc(N2CCN(C(=O)Cn3nc(C(=O)N4CCN5CCCC[C@@H]5C4)c4c3C[C@H]3C[C@@H]43)CC2)c1C` [Example 246, 1-[4-(2,3-dimethylphenyl)piperazin-1-yl]-2-{(3bR,4aR)-3-[(9aR)-octahydro-2H-pyrido[1,2-a]pyrazine-2-carbonyl]-3b,4,4a,5-tetrahydro-1H-cyclopropa[3,4]cyclopenta[1,2-c]pyrazol-1-yl}ethan-1-one] it was 3.27 nM; in that of `Cc1cccc(N2CCN(C(=O)Cn3nc(C(=O)N4CCC(C)(CO)CC4)c4c3C[C@H]3C[C@@H]43)CC2)c1C` [Example 248, 1-[4-(2,3-dimethylphenyl)piperazin-1-yl]-2-{(3aR,4aR)-3-[4-(hydroxymethyl)-4-methylpiperidine-1-carbonyl]-3b,4,4a,5-tetrahydro-1H-cyclopropa[3,4]cyclopenta[1,2-c]pyrazol-1-yl}ethan-1-one], 0.7 nM; in that of `Cc1cccc(N2CCN(C(=O)Cn3nc(C(=O)N4CCC(CO)CC4)c4c3C[C@H]3C[C@@H]43)CC2)c1C` [Example 249, 1-[4-(2,3-dimethylphenyl)piperazin-1-yl]-2-{(3bR,4aR)-3-[4-(hydroxymethyl)piperidine-1-carbonyl]-3b,4,4a,5-tetrahydro-1H-cyclopropa[3,4]cyclopenta[1,2-c]pyrazol-1-yl}ethan-1-one], 0.62 nM.
With `Cc1cccc(N2CCN(C(=O)Cn3nc(C(=O)N4CCN(CC(F)(F)F)CC4)c4c3C[C@H]3C[C@@H]43)CC2)c1C` [Example 250, 1-[4-(2,3-dimethylphenyl)piperazin-1-yl]-2-{(3bR,4aR)-3-[4-(2,2,2-trifluoroethyl)piperazine-1-carbonyl]-3b,4,4a,5-tetrahydro-1H-cyclopropa[3,4]cyclopenta[1,2-c]pyrazol-1-yl}ethan-1-one], the IC50 stood at 0.94 nM.
On the same count and under the same terms, the value for `Cc1cccc(N2CCN(C(=O)Cn3nc(C(=O)N4CC[C@H](CO)C4)c4c3C[C@H]3C[C@@H]43)CC2)c1C` [Example 251, 1-[4-(2,3-dimethylphenyl)piperazin-1-yl]-2-{(3bR,4aR)-3-[(3S)-3-(hydroxymethyl)pyrrolidine-1-carbonyl]-3b,4,4a,5-tetrahydro-1H-cyclopropa[3,4]cyclopenta[1,2-c]pyrazol-1-yl}ethan-1-one] was 0.94 nM; that for `Cc1cccc(N2CCN(C(=O)Cn3nc(C(=O)N4CC[C@@H](CO)C4)c4c3C[C@H]3C[C@@H]43)CC2)c1C` [Example 252, 1-[4-(2,3-dimethylphenyl)piperazin-1-yl]-2-{(3bR,4aR)-3-[(3R)-3-(hydroxymethyl)pyrrolidine-1-carbonyl]-3b,4,4a,5-tetrahydro-1H-cyclopropa[3,4]cyclopenta[1,2-c]pyrazol-1-yl}ethan-1-one] was 1.5 nM.
Same read-out and setting: in the case of `Cc1cccc(N2CCN(C(=O)Cn3nc(C(=O)N4CCC(N5CCNC5=O)CC4)c4c3C[C@H]3C[C@@H]43)CC2)c1C` [Example 253, 1-{1-[(3bR,4aR)-1-{2-[4-(2,3-dimethylphenyl)piperazin-1-yl]-2-oxoethyl}-3b,4,4a,5-tetrahydro-1H-cyclopropa[3,4]cyclopenta[1,2-c]pyrazole-3-carbonyl]piperidin-4-yl}imidazolidin-2-one] it was 1.52 nM.
Still for that read-out and setting: the value for `CNC(=O)C1CCN(C(=O)c2nn(CC(=O)N3CCN(c4cccc(C)c4C)CC3)c3c2[C@@H]2C[C@@H]2C3)CC1` [Example 254, 1-[(3bR,4aR)-1-{2-[4-(2,3-dimethylphenyl)piperazin-1-yl]-2-oxoethyl}-3b,4,4a,5-tetrahydro-1H-cyclopropa[3,4]cyclopenta[1,2-c]pyrazol-3-carbonyl]-N-methylpiperidine-4-carboxamide] was 1.71 nM.
For the compound `Cc1cccc(N2CCN(C(=O)Cn3nc(C(=O)N4CCC(NC(N)=O)CC4)c4c3C[C@H]3C[C@@H]43)CC2)c1C` [Example 255, N-{1-[(3bR,4aR)-1-{2-[4-(2,3-dimethylphenyl)piperazin-1-yl]-2-oxoethyl}-3b,4,4a,5-tetrahydro-1H-cyclopropa[3,4]cyclopenta[1,2-c]pyrazole-3-carbonyl]piperidin-4-yl}urea], the IC50 is 13.1 nM.
`CC(=O)N(C)C1CCN(C(=O)c2nn(CC(=O)N3CCN(c4cccc(C)c4C)CC3)c3c2[C@@H]2C[C@@H]2C3)CC1` [Example 256, N-{1-[(3bR,4aR)-1-{2-[4-(2,3-dimethylphenyl)piperazin-1-yl]-2-oxoethyl}-3b,4,4a,5-tetrahydro-1H-cyclopropa[3,4]cyclopenta[1,2-c]pyrazole-3-carbonyl]piperidin-4-yl}-N-methylacetamide]: the concentration for half-maximal inhibition (IC50) is 0.83 nM.
Regarding `Cc1cccc(N2CCN(C(=O)Cn3nc(C(=O)N4CCC(NC(=O)C5CC5)CC4)c4c3C[C@H]3C[C@@H]43)CC2)c1C` [Example 257, N-{1-[(3bR,4aR)-1-{2-[4-(2,3-dimethylphenyl)piperazin-1-yl]-2-oxoethyl}-3b,4,4a,5-tetrahydro-1H-cyclopropa[3,4]cyclopenta[1,2-c]pyrazole-3-carbonyl]piperidin-4-yl}cyclopropanecarboxamide], the IC50 is 1.05 nM.
On the same count and under the same terms, the value for `Cc1cccc(N2CCN(C(=O)Cn3nc(C(=O)N4CCC(N5CCC5)CC4)c4c3C[C@H]3C[C@@H]43)CC2)c1C` [Example 258, 2-{(3bR,4aR)-3-[4-(azetidin-1-yl)piperidine-1-carbonyl]-3b,4,4a,5-tetrahydro-1H-cyclopropa[3,4]cyclopenta[1,2-c]pyrazol-1-yl}-1-[4-(2,3-dimethylphenyl)piperazin-1-yl]ethan-1-one] was 2.95 nM; that for `Cc1cccc(N2CCN(C(=O)Cn3nc(C(=O)N4CCC(O)(CN5CCCCC5)CC4)c4c3C[C@H]3C[C@@H]43)CC2)c1C` [Example 259, 1-[4-(2,3-dimethylphenyl)piperazin-1-yl]-2-[(3bR,4aR)-3-{4-hydroxy-4-[(piperidin-1-yl)methyl]piperidine-1-carbonyl}-3b,4,4a,5-tetrahydro-1H-cyclopropa[3,4]cyclopenta[1,2-c]pyrazol-1-yl]ethan-1-one] was 9.62 nM; that for `Cc1cccc(N2CCN(C(=O)Cn3nc(C(=O)N4CCN(CC(F)F)CC4)c4c3C[C@H]3C[C@@H]43)CC2)c1C` [Example 260, 2-{(3bR,4aR)-3-[4-(2,2-difluoroethyl)piperazine-1-carbonyl]-3b,4,4a,5-tetrahydro-1H-cyclopropa[3,4]cyclopenta[1,2-c]pyrazol-1-yl}-1-[4-(2,3-dimethyl-phenyl)piperazin-1-yl]ethan-1-one] was 0.84 nM.
For the compound `Cc1cccc(N2CCN(C(=O)Cn3nc(C(=O)N4CC[C@@H](O)C[C@@H]4C)c4c3C[C@H]3C[C@@H]43)CC2)c1C` [Example 261, 1-[4-(2,3-dimethylphenyl)piperazin-1-yl]-2-{(3bR,4aR)-3-[(2S,4R)-4-hydroxy-2-methylpiperidine-1-carbonyl]-3b,4,4a,5-tetrahydro-1H-cyclopropa[3,4]cyclopenta[1,2-c]pyrazol-1-yl}ethan-1-one], the half-inhibitory concentration (IC50) was 0.95 nM.
Consider `Cc1cccc(N2CCN(C(=O)Cn3nc(C(=O)N4CC[C@H](C(C)(C)O)C4)c4c3C[C@H]3C[C@@H]43)CC2)c1C` [Example 262, 1-[4-(2,3-dimethylphenyl)piperazin-1-yl]-2-{(3bR,4aR)-3-[(3S)-3-(2-hydroxypropan-2-yl)pyrrolidine-1-carbonyl]-3b,4,4a,5-tetrahydro-1H-cyclopropa[3,4]cyclopenta[1,2-c]pyrazol-1-yl}ethan-1-one], for which the 50% inhibitory concentration (IC50) was 0.82 nM.
Turning to `Cc1cccc(N2CCN(C(=O)Cn3nc(C(=O)N4CCC(O)(CO)CC4)c4c3C[C@H]3C[C@@H]43)CC2)c1C` [Example 263, 1-[4-(2,3-dimethylphenyl)piperazin-1-yl]-2-{(3bR,4aR)-3-[4-hydroxy-4-(hydroxymethyl)piperidine-1-carbonyl]-3b,4,4a,5-tetrahydro-1H-cyclopropa[3,4]cyclopenta[1,2-c]pyrazol-1-yl}ethan-1-one], the IC50 came to 0.75 nM.
On the same count and under the same terms, in the case of `Cc1cccc(N2CCN(C(=O)Cn3nc(C(=O)N4CCC(O)C(CO)C4)c4c3C[C@H]3C[C@@H]43)CC2)c1C` (stereo partly drawn) [Example 264, 1-[4-(2,3-dimethylphenyl)piperazin-1-yl]-2-{(3bR,4aR)-3-[4-hydroxy-3-(hydroxymethyl)piperidine-1-carbonyl]-3b,4,4a,5-tetrahydro-1H-cyclopropa[3,4]cyclopenta[1,2-c]pyrazol-1-yl}ethan-1-one] it was 1.28 nM; in that of `Cc1cccc(N2CCN(C(=O)Cn3nc(C(=O)N4CC[S+]([O-])CC4)c4c3C[C@H]3C[C@@H]43)CC2)c1C` [Example 266, 4-[(3bR,4aR)-1-{2-[4-(2,3-dimethylphenyl)piperazin-1-yl]-2-oxoethyl}-3b,4,4a,5-tetrahydro-1H-cyclopropa[3,4]cyclopenta[1,2-c]pyrazole-3-carbonyl]-1lambda~4~,4-thiazinan-1-one], 5.73 nM.
Still for that read-out and setting: in the case of `Cc1cccc(N2CCN(C(=O)Cn3nc(C(=O)N4CCOCC4CO)c4c3C[C@H]3C[C@@H]43)CC2)c1C` (stereo partly drawn) [Example 267, 1-[4-(2,3-dimethylphenyl)piperazin-1-yl]-2-{(3bR,4aR)-3-[3-(hydroxymethyl)morpholine-4-carbonyl]-3b,4,4a,5-tetrahydro-1H-cyclopropa[3,4]cyclopenta[1,2-c]pyrazol-1-yl}ethan-1-one] it was 7.91 nM.
